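Method: 48-hour compound exposure of cells in 96-well plates, five concentrations, linear interpolation of endpoints. The concentration for 50% growth inhibition is given as GI50.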 The source made the active and inactive calls. Rule as the data show it: active = GI50 up to about 1.1 µM and inactive = higher.
How the values were obtained:
Test in all cases: inhibition of tumour cell growth, NCI panel, 48 h
MCF7 = test system: MCF7
TK-10 = test system: TK-10
NCI/ADR-RES = test system: NCI/ADR-RES
SK-MEL-28 = test system: SK-MEL-28
HOP-62 = test system: HOP-62
OVCAR-3 = test system: OVCAR-3
SNB-19 = test system: SNB-19
SR = test system: SR
ACHN = test system: ACHN
NCI-H23 = test system: NCI-H23
HOP-92 = test system: HOP-92
UACC-62 = test system: UACC-62
CCRF-CEM = test system: CCRF-CEM
K562 = test system: K562
UACC-257 = test system: UACC-257
T47D = test system: T47D
SNB-75 = test system: SNB-75
KM12 = test system: KM12
HCC 2998 = test system: HCC 2998
RXF 393 = test system: RXF 393
SW-620 = test system: SW-620
MDA-N = test system: MDA-N
HT-29 = test system: HT-29
786-0 = test system: 786-0
SF-539 = test system: SF-539
SK-MEL-5 = test system: SK-MEL-5
UO-31 = test system: UO-31
IGROV-1 = test system: IGROV-1
LOX IMVI = test system: LOX IMVI
A498 = test system: A498
SF-268 = test system: SF-268
NCI-H460 = test system: NCI-H460
BT-549 = test system: BT-549
Hs-578T = test system: Hs-578T
MDA-MB-231 = test system: MDA-MB-231
MOLT-4 = test system: MOLT-4
OVCAR-8 = test system: OVCAR-8
CAKI-1 = test system: CAKI-1
MDA-MB-435 = test system: MDA-MB-435
NCI-H522 = test system: NCI-H522
HCT-15 = test system: HCT-15
A549 = test system: A549
PC-3 = test system: PC-3
COLO 205 = test system: COLO 205
OVCAR-5 = test system: OVCAR-5
SK-MEL-2 = test system: SK-MEL-2
HL-60 = test system: HL-60
HCT-116 = test system: HCT-116
SN12C = test system: SN12C
EKVX = test system: EKVX
M14 = test system: M14
DU-145 = test system: DU-145
U-251 = test system: U-251
SF-295 = test system: SF-295
OVCAR-4 = test system: OVCAR-4
NCI-H226 = test system: NCI-H226
Malme-3M = test system: Malme-3M
SK-OV-3 = test system: SK-OV-3
RPMI-8226 = test system: RPMI-8226

## CC(Nc1cc(=O)n(C)c(=O)[nH]1)c1ccccc1 (stereo not drawn)
MCF7
  GI50: > 100 µM (inactive)
TK-10
  GI50: > 100 µM (inactive)
NCI/ADR-RES
  GI50: > 100 µM (inactive)
SK-MEL-28
  GI50: > 100 µM (inactive)
HOP-62
  GI50: > 100 µM (inactive)
OVCAR-3
  GI50: > 100 µM (inactive)
SNB-19
  GI50: > 100 µM (inactive)
SR
  GI50: > 100 µM (inactive)
ACHN
  GI50: > 100 µM (inactive)
NCI-H23
  GI50: > 100 µM (inactive)
HOP-92
  GI50: 15.5 µM (inactive)
UACC-62
  GI50: > 100 µM (inactive)
CCRF-CEM
  GI50: > 100 µM (inactive)
K562
  GI50: > 100 µM (inactive)
UACC-257
  GI50: > 100 µM (inactive)
T47D
  GI50: > 100 µM (inactive)
SNB-75
  GI50: > 100 µM (inactive)
KM12
  GI50: > 100 µM (inactive)
HCC 2998
  GI50: > 100 µM (inactive)
RXF 393
  GI50: > 100 µM (inactive)
SW-620
  GI50: > 100 µM (inactive)
MDA-N
  GI50: > 100 µM (inactive)
HT-29
  GI50: > 100 µM (inactive)
786-0
  GI50: > 100 µM (inactive)
SF-539
  GI50: > 100 µM (inactive)
SK-MEL-5
  GI50: > 100 µM (inactive)
UO-31
  GI50: > 100 µM (inactive)
IGROV-1
  GI50: > 100 µM (inactive)
LOX IMVI
  GI50: > 100 µM (inactive)
A498
  GI50: > 100 µM (inactive)
SF-268
  GI50: > 100 µM (inactive)
NCI-H460
  GI50: > 100 µM (inactive)
BT-549
  GI50: > 100 µM (inactive)
Hs-578T
  GI50: > 100 µM (inactive)
MDA-MB-231
  GI50: > 100 µM (inactive)
MOLT-4
  GI50: > 100 µM (inactive)
OVCAR-8
  GI50: > 100 µM (inactive)
CAKI-1
  GI50: > 100 µM (inactive)
MDA-MB-435
  GI50: > 100 µM (inactive)
NCI-H522
  GI50: > 100 µM (inactive)
HCT-15
  GI50: > 100 µM
A549
  GI50: > 100 µM (inactive)
PC-3
  GI50: > 100 µM (inactive)
COLO 205
  GI50: > 100 µM (inactive)
OVCAR-5
  GI50: > 100 µM (inactive)
SK-MEL-2
  GI50: > 100 µM (inactive)
HL-60
  GI50: > 100 µM (inactive)
HCT-116
  GI50: > 100 µM (inactive)
SN12C
  GI50: > 100 µM (inactive)
EKVX
  GI50: > 100 µM (inactive)
M14
  GI50: > 100 µM (inactive)
DU-145
  GI50: > 100 µM (inactive)
U-251
  GI50: > 100 µM (inactive)
SF-295
  GI50: > 100 µM (inactive)
OVCAR-4
  GI50: > 100 µM (inactive)

## CCCCCC(/C=C/C1CCC(=O)C1CC#C[Si](C)(C)C)OCc1ccccc1 (stereo not drawn)
MCF7
  GI50: 19.1 µM (inactive)
TK-10
  GI50: 22.1 µM (inactive)
NCI/ADR-RES
  GI50: 14.5 µM (inactive)
SK-MEL-28
  GI50: 23 µM (inactive)
HOP-62
  GI50: 19.1 µM (inactive)
OVCAR-3
  GI50: 17.5 µM (inactive)
SNB-19
  GI50: 28.4 µM (inactive)
SR
  GI50: > 35 µM (inactive)
ACHN
  GI50: 17.5 µM (inactive)
NCI-H23
  GI50: 22.2 µM (inactive)
NCI-H226
  GI50: 30.5 µM (inactive)
Malme-3M
  GI50: 15.9 µM (inactive)
HOP-92
  GI50: 12.1 µM (inactive)
UACC-62
  GI50: 13.5 µM (inactive)
CCRF-CEM
  GI50: 10.5 µM (inactive)
K562
  GI50: 19.1 µM (inactive)
UACC-257
  GI50: 17.2 µM (inactive)
T47D
  GI50: 23.2 µM (inactive)
SNB-75
  GI50: 16.6 µM (inactive)
KM12
  GI50: 16.2 µM (inactive)
HCC 2998
  GI50: 17.9 µM (inactive)
RXF 393
  GI50: 13.9 µM (inactive)
SW-620
  GI50: 24 µM (inactive)
MDA-N
  GI50: 21.1 µM (inactive)
HT-29
  GI50: 16.3 µM (inactive)
786-0
  GI50: 14.6 µM (inactive)
SF-539
  GI50: 12.1 µM (inactive)
SK-MEL-5
  GI50: 13.2 µM (inactive)
UO-31
  GI50: 15.5 µM (inactive)
IGROV-1
  GI50: 14.5 µM (inactive)
LOX IMVI
  GI50: 15.7 µM (inactive)
A498
  GI50: 36.3 µM (inactive)
SF-268
  GI50: 14.3 µM (inactive)
NCI-H460
  GI50: 17 µM (inactive)
BT-549
  GI50: 17.3 µM (inactive)
Hs-578T
  GI50: 17.9 µM (inactive)
MDA-MB-231
  GI50: 23.1 µM (inactive)
MOLT-4
  GI50: > 37.8 µM (inactive)
OVCAR-8
  GI50: 14.8 µM (inactive)
CAKI-1
  GI50: 17.9 µM (inactive)
MDA-MB-435
  GI50: 19.9 µM (inactive)
NCI-H522
  GI50: 14 µM (inactive)
HCT-15
  GI50: 15.6 µM
A549
  GI50: 21.5 µM (inactive)
PC-3
  GI50: 17.3 µM (inactive)
COLO 205
  GI50: 19.2 µM (inactive)
OVCAR-5
  GI50: 19.9 µM (inactive)
SK-MEL-2
  GI50: 15.5 µM (inactive)
HCT-116
  GI50: 15.8 µM (inactive)
SN12C
  GI50: 19.8 µM (inactive)
EKVX
  GI50: 16.9 µM (inactive)
M14
  GI50: 25 µM (inactive)
DU-145
  GI50: 31.8 µM (inactive)
U-251
  GI50: 19 µM (inactive)
SF-295
  GI50: 17.1 µM (inactive)
SK-OV-3
  GI50: 41.2 µM (inactive)
OVCAR-4
  GI50: 26.9 µM (inactive)
RPMI-8226
  GI50: 14.7 µM (inactive)
